The structures appear in SMILES notation. Values joined by “and” are separate entries in the source; they are usually repeats but may differ in a detail not shown here. Identical values can stand only once. Toxic doses and inconclusive results are not listed.

Data on 15 molecules can be found in PubChem BioAssay AID328 (DTP/NCI, 2004).

The subject of the experiment is BDF1 mice, P388 leukemia ip, median survival T/C. Briefly: NCI In Vivo Anticancer Drug Screen. Data for tumor model P388 Leukemia (intraperitoneal) in B6D2F1 (BDF1) mice. The following applies: endpoint: median survival time, higher = longer survival. The essentials:
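Reported as T/C, where T is the survival measurement in dosed animals and C the same measurement in vehicle controls.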

[1] abbreviates: dose: 100.0 mg/kg/injection, schedule: Q04DX002 (ip), vehicle: saline with Tween-80.
Setting [2] is: dose: 200.0 mg/kg/injection, schedule: Q04DX002 (ip), vehicle: saline with Tween-80.
Setting [3] is: dose: 12.5 mg/kg/injection, schedule: Q01DX009 (ip), vehicle: water.
[4] abbreviates: dose: 25.0 mg/kg/injection, schedule: Q01DX009 (ip), vehicle: water.
Where [5] appears, read: dose: 100.0 mg/kg/injection, schedule: Q04DX003 (ip), vehicle: saline sonified.
[6] abbreviates: dose: 50.0 mg/kg/injection, schedule: Q01DX009 (ip), vehicle: saline with Tween-80.
[7] abbreviates: dose: 25.0 mg/kg/injection, schedule: Q01DX009 (ip), vehicle: saline.
The mark [8] stands for this setting: dose: 12.5 mg/kg/injection, schedule: Q01DX009 (ip), vehicle: saline with Tween-80.
Where [9] appears, read: dose: 25.0 mg/kg/injection, schedule: Q01DX009 (ip), vehicle: saline with Tween-80.

As for `N#Cc1nnc2cc[nH]n2c1=O`, the T/C runs as follows: under setting [1], 100 % of control; under setting [2], 103 % of control; (dose: 400.0 mg/kg/injection, schedule: Q04DX002 (ip), vehicle: saline with Tween-80) 109 % of control.
With `CC(C)CCOC(=O)Cc1ccccc1`, the T/C was 100 % of control (dose: 100.0 mg/kg/injection, schedule: Q01DX009 (ip), vehicle: Klucel (hydroxypropylcellulose) (HPC)); 90 % of control (dose: 100.0 mg/kg/injection, schedule: Q04DX003 (ip), vehicle: Klucel (hydroxypropylcellulose) (HPC)); 115 % of control (dose: 200.0 mg/kg/injection, schedule: Q01DX009 (ip), vehicle: Klucel (hydroxypropylcellulose) (HPC)); 113 % of control (dose: 200.0 mg/kg/injection, schedule: Q04DX003 (ip), vehicle: Klucel (hydroxypropylcellulose) (HPC)); 115 % of control (dose: 400.0 mg/kg/injection, schedule: Q01DX009 (ip), vehicle: Klucel (hydroxypropylcellulose) (HPC)); 118 % of control (dose: 400.0 mg/kg/injection, schedule: Q04DX003 (ip), vehicle: Klucel (hydroxypropylcellulose) (HPC)).
As to `CC(=O)C(C)[P+](c1ccccc1)(c1ccccc1)c1ccccc1` (stereo not drawn), the T/C (dose: 2.0 mg/kg/injection, schedule: Q01DX009 (ip), vehicle: water) is 95 % of control; the T/C (dose: 4.0 mg/kg/injection, schedule: Q01DX009 (ip), vehicle: water) was 100 % of control; the T/C (dose: 8.0 mg/kg/injection, schedule: Q01DX009 (ip), vehicle: water) is 93 % of control; the T/C under setting [3] was 96 % of control; the T/C (dose: 16.0 mg/kg/injection, schedule: Q01DX009 (ip), vehicle: water) is 103 % of control; the T/C under setting [4] was 91 % of control.
Regarding `NC(=O)C12CCCCC1CCC(=O)C2` (stereo not drawn), the T/C is, setting by setting: (dose: 25.0 mg/kg/injection, schedule: Q04DX003 (ip), vehicle: saline sonified) 105 % of control; (dose: 50.0 mg/kg/injection, schedule: Q04DX003 (ip), vehicle: saline sonified) 100 % of control; under setting [5], 95 % of control.
`c1ccc2nc(-c3cc4ccccc4s3)ccc2c1`: the T/C is, setting by setting: under setting [5], 104 % of control; (dose: 200.0 mg/kg/injection, schedule: Q04DX003 (ip), vehicle: saline sonified) 95 % of control; (dose: 400.0 mg/kg/injection, schedule: Q04DX003 (ip), vehicle: saline sonified) 118 % of control.
In the case of `NC(=O)OCc1c(O)c2c(c(O)c1COC(N)=O)C(=O)C=CC2=O`, the T/C under setting [3] was 111 % of control; the T/C (dose: 12.5 mg/kg/injection, schedule: Q04DX003 (ip), vehicle: water) was 100 % of control; the T/C under setting [4] is 92 % of control; the T/C (dose: 25.0 mg/kg/injection, schedule: Q04DX003 (ip), vehicle: water) was 104 % of control; the T/C (dose: 50.0 mg/kg/injection, schedule: Q01DX009 (ip), vehicle: water) is 104 % of control; the T/C (dose: 50.0 mg/kg/injection, schedule: Q04DX003 (ip), vehicle: water) is 101 % of control. For the same molecule, the T/C was 100 % of control (dose: 100.0 mg/kg/injection, schedule: Q04DX003 (ip), vehicle: water); 102 % of control and 113 % of control (dose: 200.0 mg/kg/injection, schedule: Q04DX003 (ip), vehicle: water); 95 % of control (dose: 300.0 mg/kg/injection, schedule: Q04DX003 (ip), vehicle: water); 108 % of control (dose: 400.0 mg/kg/injection, schedule: Q04DX003 (ip), vehicle: water).
Consider `O=C(O)C(c1ccccc1)C1CCCC1` (stereo not drawn), for which the T/C under setting [6] is 100 % of control; the T/C (dose: 100.0 mg/kg/injection, schedule: Q01DX009 (ip), vehicle: saline with Tween-80) is 95 % of control; the T/C (dose: 200.0 mg/kg/injection, schedule: Q01DX009 (ip), vehicle: saline with Tween-80) is 109 % of control.
As for `Cn1c(-c2ccccc2)c2c(c1-c1ccccc1)CCCC2`, the T/C reads like this: under setting [1], 88 % of control; under setting [2], 87 % of control.
As for `N/C(=N\O)c1nn(C2OC(CO)C(O)C2O)c2ncnc(N)c12` (stereo not drawn), the T/C by setting is: (dose: 12.5 mg/kg/injection, schedule: Q01DX009 (ip), vehicle: saline) 102 % of control; (dose: 12.5 mg/kg/injection, schedule: Q04DX003 (ip), vehicle: saline) 115 % of control; under setting [7], 114 % of control; (dose: 25.0 mg/kg/injection, schedule: Q04DX003 (ip), vehicle: saline) 105 % of control and 116 % of control; (dose: 50.0 mg/kg/injection, schedule: Q04DX003 (ip), vehicle: saline) 110 % of control and 112 % of control; (dose: 100.0 mg/kg/injection, schedule: Q04DX003 (ip), vehicle: saline) 105 % of control and 116 % of control. Moreover, the T/C (dose: 200.0 mg/kg/injection, schedule: Q04DX003 (ip), vehicle: saline) was 112 % of control.
As for `CC12CCC(CC1)C(C)(C)O2`, the T/C is, setting by setting: under setting [7], 106 % of control; (dose: 50.0 mg/kg/injection, schedule: Q01DX009 (ip), vehicle: saline) 117 % of control; (dose: 100.0 mg/kg/injection, schedule: Q01DX009 (ip), vehicle: saline) 106 % of control; (dose: 200.0 mg/kg/injection, schedule: Q01DX009 (ip), vehicle: saline) 107 % of control.
For the molecule `C[n+]1ccc2ccccc2c1CCCc1nccc2ccccc12`, the T/C is 100 % of control (dose: 6.25 mg/kg/injection, schedule: Q01DX009 (ip), vehicle: saline with Tween-80); 120 % of control under setting [8]; 116 % of control under setting [9].
Turning to `CC1C(=O)CCC2(C)C1CCC1C3CCC(O)C3(C)CCC12` (stereo not drawn), the T/C runs as follows: (dose: 100.0 mg/kg/injection, schedule: Q04DX003 (ip), vehicle: saline with Tween-80) 95 % of control; (dose: 200.0 mg/kg/injection, schedule: Q04DX003 (ip), vehicle: saline with Tween-80) 100 % of control; (dose: 400.0 mg/kg/injection, schedule: Q04DX003 (ip), vehicle: saline with Tween-80) 91 % of control.
As for `CN(Cc1ccc2nc(N)nc(N)c2c1)c1ccc(C(=O)NC(CCC(=O)O)C(=O)O)cc1` (stereo not drawn), the T/C by setting is: (dose: 0.03 mg/kg/injection, schedule: Q01DX009 (ip), vehicle: saline) 172 % of control; (dose: 0.05 mg/kg/injection, schedule: Q01DX009 (ip), vehicle: saline) 194 % of control; (dose: 0.09 mg/kg/injection, schedule: Q01DX009 (ip), vehicle: saline) 200 % of control and 218 % of control; (dose: 0.15 mg/kg/injection, schedule: Q01DX009 (ip), vehicle: saline) 86 % of control and 190 % of control and 209 % of control; (dose: 0.22 mg/kg/injection, schedule: Q01DX009 (ip), vehicle: saline) 223 % of control; (dose: 0.31 mg/kg/injection, schedule: Q01DX009 (ip), vehicle: saline) 110 % of control. The T/C by setting is: (dose: 1.25 mg/kg/injection, schedule: Q04DX003 (ip), vehicle: saline) 218 % of control; (dose: 1.65 mg/kg/injection, schedule: Q04DX003 (ip), vehicle: saline) 154 % of control; (dose: 2.5 mg/kg/injection, schedule: Q04DX003 (ip), vehicle: saline) 268 % of control and 159 % of control and 181 % of control; (dose: 3.75 mg/kg/injection, schedule: Q04DX003 (ip), vehicle: saline) 86 % of control and 222 % of control; (dose: 5.0 mg/kg/injection, schedule: Q04DX003 (ip), vehicle: saline) 104 % of control; (dose: 5.7 micrograms/kg/injection, schedule: Q01DX009 (ip), vehicle: saline) 116 % of control. The T/C reads like this: (dose: 8.5 micrograms/kg/injection, schedule: Q01DX009 (ip), vehicle: saline) 116 % of control; (dose: 13.0 micrograms/kg/injection, schedule: Q01DX009 (ip), vehicle: saline) 262 % of control; (dose: 19.0 micrograms/kg/injection, schedule: Q01DX009 (ip), vehicle: saline) 174 % of control.
In the case of `CC(=O)Oc1cc2c(cc1OC(C)=O)C(=O)CCC=C2`, the T/C runs as follows: under setting [8], 114 % of control; under setting [9], 109 % of control; under setting [6], 104 % of control.
Turning to `S=P(N1CCCC1)(N1CC1)N1CC1`, the T/C (dose: 5.0 mg/kg/injection, schedule: Q01DX009 (ip), vehicle: saline with Tween-80) is 158 % of control and the T/C (dose: 10.0 mg/kg/injection, schedule: Q01DX009 (ip), vehicle: saline with Tween-80) was 104 % of control.
